Test [1] deals with carrageenin-induced inflammatory nociception in the hind paw. Nature of the test: Inflammatory nociception induced by carrageenin (von Frey filament). The format is in vivo. Conditions: mice, carrageenin 300 μg per paw intraplantar; alpha-humulene 50 mg/kg orally or paracetamol 600 mg/kg orally, 1 h before; evaluated after 3, 4 and 6 hours. The method, then: The evaluation methodology used in this test is described by Vaz et al. in J. Pharmacol. Exp. Ther. 278:304-312, 1996. Male mice (25-35 g) were systemically (orally) treated with alpha-humulene, 50 mg/kg, administered 1 hour before the experiment. Animals treated with 0.9% saline solution (0.1 ml/10 g) were used as the control. Another group of animals was treated with paracetamol (600 mg/kg, orally, administered 1 h before the treatment), that was used as positive control. For the induction of inflammatory pain, the animals received an intraplantar injection of 0.05 ml of carrageenin (300 μg per paw) at the plantar surface of the right hind paw. […] The nociception was evaluated with a Von Frey filament (0.4 g) after 3, 4 and 6 hours. […] The filament was applied to the right hind paw, complying with the criteria of (1) the application was perpendicular to the plantar surface, with enough pressure to cause the filament to bend, thus obtaining total pressure; (2) the animals were evaluated when the four paws were touching the screen; (3) the paw withdrawal response was considered when the animal removed the paw entirely from the support screen; (4) each animal was stimulated 10 consecutive times, each stimulation lasting 1 second; (5) each paw withdrawal event was considered as 10% of the response, with 10 withdrawal events corresponding to 100% response. […]

The test system of the next test is histamine-induced oedema. Nature of the test: Histamine oedema in mouse paw. In kind it is in vivo. Conditions: mice, histamine 100 nmol/paw intraplantar; 50 mg/kg orally 1 h before; 10 min to 48 h. The method, then:
The test used below is described by Cunha et. al. in the publication Life Sci. 70:159-169, 2001. Male 25 g-35 g mice were slightly sedated with ether and were injected 50 μl saline containing histamine (100 nmol/paw), intraplantar, in the right paw. The left paw received the same volume of saline and was taken as negative control. The swelling was measured with a plethysmometer (manufacturer: Ugo Basile, Italy) along various time intervals after the injection of the phlogistic agent. The difference between the volumes of the right and the left paw were quantified (in ml) and taken as an index of oedema. One hour before the test the animals were systemically treated (orally) with 50 mg/kg of alpha-humulene. Graph 4 below compares the inhibition of the volume of the oedema by administration of alpha-humulene. Oedema volume measurement time intervals were 10, 20, 30, 60, and 120 min, 24 h and 48 h. Each point represents the average of 5 animals, and the vertical bars the mean standard deviation.

For the next test, the system named is COX-2. As to the kind of experiment: Expression of enzyme COX-2 in carrageenin-injected rat paw (Western blot). In kind it is in vivo. Conditions: 50 mg/kg orally 60 minutes before carrageenin 300 μg/paw, subcutaneous paw tissue. The method, then: The expression of enzymes COX-2 and iNOS were determined by Western blot according to the methodology described by Medeiros et. al. in the publication Circ Res. 28:1375-1382, 2004. Male 160-180 g rats were orally given 50 mg/kg of trans-caryophyllene. Animals treated with 0.9% (0.1 ml/10 g) saline were used as control. Another group of animals was treated with 0.5 mg/kg dexamethasone, subcutaneously, 4 hours before the test, and used as positive control. After 60 minutes, the animals received intraplantar injections of 100 μl of carrageenin (300 μg/paw) and were sacrificed after 180 minutes, and subcutaneous paw tissue was removed […] after the carrageenin injection. […] The protein concentration was determined by the Bradford method (BioRad Laboratories Inc. kit, Milan, Italy). […] The bands thus obtained were quantified using a chemoluminescence kit and densitometry analysis (relative units) in radiographic films. Graph 10 below (each result represents the average of 5 animals, and the vertical bars the mean standard error deviation) compares inhibition of expression of the COX2 enzymes, obtained by the administration of alpha-humulene and trans-caryophyllene, when evaluated in the subcutaneous tissue or the paw injected with carrageenin, compared to the expression of COX2 induced by carrageenin obtained by treatment with dexomethasone.
In general terms: Carrageenan injected into the paw causes an acute inflammation.

For a further test, the system named is iNOS. Nature of the test: Expression of enzyme iNOS in carrageenin-injected rat paw (Western blot). The conditions noted are these: 50 mg/kg orally 60 minutes before carrageenin 300 μg/paw, subcutaneous paw tissue. The format is in vivo.
For test [2] the following is noted: reference: Carcinogenesis (2002), 23(5), 795-802; cited from earlier work.

Structures are written as SMILES.

The values that follow come from patent publication US20080280996A1, “Use of Carophyllenes in the Manufacture of Medicaments and Treatment of Bodily Conditions of Inflammation and Inflammatory Pain” (priority 2004, published 2008).

Protocol for iNOS: Animals treated with 0.9% (0.1 ml/10 g) saline were used as control. Another group of animals was treated with 0.5 mg/kg dexamethasone, subcutaneously, 4 hours before the test, and used as positive control. After 60 minutes, the animals received intraplantar injections of 100 μl of carrageenin (300 μg/paw) and were sacrificed after 180 minutes, and subcutaneous paw tissue was removed 240 minutes after the carrageenin injection. The collected tissue was immediately frozen in liquid nitrogen and re-suspended in a buffer of hypotonic lysis (10 mM HEPES N-2-hydroxyethylpiperazine-N'-2-ethanesulfonic acid, 1.5 mM MgCl2, 10 mM KCl, 0.5 mM PMSF phenylmethylsulphonyl fluoride, 1.5 μg/ml trypsin inhibitor, 7 μg/ml pepstatin A, 5 μg/ml leupeptin, 0.1 mM benzamidine 0.1 mM and 0.5 mM dithiothreitol) and homogenized. The homogenate was divided in three 2 ml aliquots, cooled in ice for 15 minutes, vigorously agitated and once again cooled in ice, in the presence of 20 μl 10% non-ionic detergent Nonidet P-40 (Roche Diagnostics, USA). […] The protein concentration was determined by the Bradford method (BioRad Laboratories Inc. kit, Milan, Italy). […] The bands thus obtained were quantified using a chemoluminescence kit and densitometry analysis (relative units) in radiographic films.

Consider `C/C1=C\CC/C(C)=C/CC(C)(C)/C=C/C1` [alpha-humulene], for which the “inflammatory nociception (paw withdrawal response to 0.4 g von Frey filament)” value in test [1] is on record as “reduced the inflammatory nociception”. Moreover, in the test with histamine-induced oedema, the histamine-induced oedema formation entry is “significantly reduced histamine-induced oedema formation”. Besides, the “expression of enzymes COX2 induced by carrageenin in the paws of rats” value in the test with COX-2 is reported as “markedly inhibited the expression”. In addition, the “expression of enzymes iNOS induced by carrageenin in the paws of rats” value in the test with iNOS was “markedly inhibited the expression”. Further, the “anti-inflammatory or chemo-therapic effects” value in test [2] is “virtually inactive”.

Regarding `C=C1CC/C=C(\C)CC[C@@H]2[C@@H]1CC2(C)C` [trans-caryophyllene], the “expression of enzymes COX2 induced by carrageenin in the paws of rats” value with COX-2 was “markedly inhibited the expression”.
